{
  "source": "patent US5698571A",
  "about": "“5-HT1F mediated inhibition of neurogenic meningeal extravasation: a method for the treatment of migraine” (Eli Lilly and Company, priority 1994, dated 1997)",
  "key": {"[1]": {"tested_on": "migraine", "details": "in vivo; cited from earlier work"}, "[2]": {"tested_on": "neurogenic inflammation", "details": "dose similar to that required to treat acute migraine in humans; cited from earlier work"}, "[3]": {"tested_on": "neuronal protein extravasation", "experiment": "Protein extravasation assay (dura, stimulation of trigeminal ganglion)", "type": "in vivo, guinea pig"}, "[4]": {"details": "Humphrey et al.; cited from earlier work"}, "[5]": {"tested_on": "rabbit saphenous vein", "experiment": "Rabbit Saphenous Vein Contraction"}, "[6]": {"details": "in vivo; cited from earlier work"}, "[7]": {"tested_on": "5-HT1F receptor", "details": "Weinshank et al., WO93/14201; cited from earlier work"}, "[8]": {"molecular_target": "T1, 5-HT1F (Homo sapiens, UniProt P30939)", "T1 construct": "expressed in transfected cells; host or cells: Ltk- cells", "experiment": "Radioligand binding ([3H]5-HT displacement), 5-HT1F"}, "[9]": {"molecular_target": "T2, 5-HT1F receptor (Homo sapiens, UniProt P30939)", "T2 sequence (P30939 1-366)": "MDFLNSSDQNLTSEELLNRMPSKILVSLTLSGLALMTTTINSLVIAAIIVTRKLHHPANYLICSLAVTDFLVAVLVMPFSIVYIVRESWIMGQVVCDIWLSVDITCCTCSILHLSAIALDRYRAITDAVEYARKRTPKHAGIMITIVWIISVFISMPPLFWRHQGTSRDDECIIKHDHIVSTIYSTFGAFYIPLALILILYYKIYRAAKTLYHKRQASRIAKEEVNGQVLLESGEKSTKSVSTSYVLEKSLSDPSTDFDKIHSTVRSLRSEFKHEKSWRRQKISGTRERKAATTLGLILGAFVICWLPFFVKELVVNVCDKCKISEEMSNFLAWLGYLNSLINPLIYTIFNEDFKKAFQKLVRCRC", "experiment": "Measurement of cAMP formation: inhibition of forskolin stimulated cAMP in NIH3 T3 cells transfected with the 5-HT1F receptor", "type": "cell-based", "details": "for agonist character at the 5-HT1F receptor in the cAMP assay: forskolin stimulated cAMP, transfected NIH3 T3 cells"}, "[10]": {"tested_on": "vasoconstriction", "details": "Goodman and Gilman; cited from earlier work"}, "[11]": {"details": "Cavia porcellus, iv, read-out: Inhibition of Protein Extravasation i.v. ID50"}, "[12]": {"details": "Oryctolagus cuniculus, read-out: Corrected Vasoconstriction EC50"}, "[13]": {"details": "Oryctolagus cuniculus; read-out: Rabbit Saphenous Vein Contraction EC50"}, "[14]": {"details": "i.v., 10 minutes before trigeminal ganglion stimulation; dose inhibiting extravasation by 50%"}, "[15]": {"details": "Oryctolagus cuniculus, read-out: Rabbit Saphenous Vein Contraction (% Max. KCl)"}},
  "note": "Where a name gives a salt, the structure may show the parent alone. Read-outs that look alike come from different tables or passages of the source.",
  "data": [
    {"smiles": "CNS(=O)(=O)Cc1ccc2[nH]cc(CCN(C)C)c2c1.O=C(O)CCC(=O)O", "note": "[Compound I, 3-[2-(dimethylamino)ethyl]-N-methyl-1H-indole-5-methanesulfonamide butane-1,4-dioate (1:1)]", "values": [
      {"measurement": "efficacy in the treatment of migraine", "setting": "[1]", "result": "effective in the treatment of migraine"},
      {"measurement": "blockade of neurogenic inflammation", "setting": "[2]", "result": "blocked"},
      {"measurement": "ED50", "setting": "[3]; [11]", "result": "2.6e-05", "unit": "µmol/kg"},
      {"measurement": "Inhibition of Protein Extravasation i.v. ID50", "setting": "[3]; iv", "result": "2.6e-08", "unit": "mmol/kg"},
      {"measurement": "agonist at 5-HT1-like receptors, hydrophilicity", "setting": "[4]", "result": "hydrophilic agonist at 5-HT-1-like receptors"},
      {"measurement": "crossing of the blood-brain barrier", "setting": "[4]", "result": "does not cross the blood-brain barrier"},
      {"measurement": "EC50", "setting": "[5]; [12]", "result": 10.3, "unit": "nM"},
      {"measurement": "EC50", "setting": "[5]; [13]", "result": 660, "unit": "nM"},
      {"measurement": "contraindications as products of vasoconstrictive activity", "setting": "[6]", "result": "coronary vasospasm, hypertension and angina"},
      {"measurement": "affinity for the 5-HT1F receptor", "setting": "[7]", "result": "high affinity"},
      {"measurement": "5-HT1F activity (in words)", "setting": "[8]", "result": "significant component of 5-HT1F activity"}
    ]},
    {"smiles": "NCCc1c[nH]c2ccc(O)cc12", "note": "[serotonin]", "values": [
      {"measurement": "agonist character at the 5-HT1F receptor in the cAMP assay", "setting": "[9]", "result": "maximal effect"}
    ]},
    {"smiles": "CCN(CC)C1CCc2cccc(Cl)c2C1.Cl", "note": "(centres unmarked) [Compound IV, 8-chloro-2-diethylamino-1,2,3,4-tetrahydronaphthalene hydrochloride]", "values": [
      {"measurement": "ED50", "setting": "[3]; [11]", "result": 0.00012, "unit": "µmol/kg"},
      {"measurement": "Inhibition of Protein Extravasation i.v. ID50", "setting": "[3]; [14]", "result": "1.2e-07", "unit": "mmol/kg"},
      {"measurement": "EC50", "setting": "[5]; [12]", "result": 1.49, "unit": "nM"},
      {"measurement": "Emax", "setting": "[5]; [15]", "result": 67.2, "unit": "%"},
      {"measurement": "EC50", "setting": "[5]; [13]", "result": 1000, "unit": "nM"},
      {"measurement": "5-HT1F activity (in words)", "setting": "[8]", "result": "significant component of 5-HT1F activity"}
    ]},
    {"smiles": "Oc1ccc2[nH]cc(C3CCNCC3)c2c1", "note": "[Compound III, 5-hydroxy-3-(4-piperidinyl)-1-H-indole oxalate]", "values": [
      {"measurement": "ED50", "setting": "[3]; [11]", "result": "8.9e-06", "unit": "µmol/kg"}
    ]},
    {"smiles": "CN1C[C@H](C(=O)N[C@]2(C)O[C@@]3(O)[C@@H]4CCCN4C(=O)[C@H](Cc4ccccc4)N3C2=O)C[C@@H]2c3cccc4[nH]cc(c34)C[C@H]21", "note": "[Dihydroergotamine]", "values": [
      {"measurement": "vasoconstrictor activity", "setting": "[10]", "result": "potent vasoconstrictor"},
      {"measurement": "ED50", "setting": "[3]; [11]", "result": "2.43e-05", "unit": "µmol/kg"},
      {"measurement": "inhibition of neuronal protein extravasation (in words)", "setting": "[3]; i.v.", "result": "fully effective inhibitor"},
      {"measurement": "ratio of extravasation in the dura, stimulated side compared to unstimulated side", "setting": "[3]; i.v.; saline controls approximately 2.0 in rats, 1.8 in guinea pigs", "result": 1.0},
      {"measurement": "agonist character at the 5-HT1F receptor in the cAMP assay", "setting": "[9]", "result": "partial agonist"},
      {"measurement": "cAMP assay Emax at the 5-HT1F receptor", "setting": "[9]; percent of maximal effect of serotonin, forskolin 10 μM", "result": 49.5, "unit": "%"}
    ]},
    {"smiles": "Cn1cc(CCN2CCC(c3c[nH]c4ccc(F)cc34)CC2)cn1", "note": "[Compound II, 5-fluoro-3-<1-<2-<1-methyl-1H-pyrazol-4-yl >ethyl>-4-piperidinyl>-1H-indolehydrochloride]", "values": [
      {"measurement": "ED50", "setting": "[3]; Cavia porcellus, iv; read-out: Inhibition of Protein Extravasation i.v. ID50", "result": "8e-07", "unit": "µmol/kg"},
      {"measurement": "Inhibition of Protein Extravasation i.v. ID50", "setting": "[3]; guinea pig, in vivo, iv", "result": "8e-10", "unit": "mmol/kg"},
      {"measurement": "EC50", "setting": "[5]; Oryctolagus cuniculus; read-out: Corrected Vasoconstriction EC50", "result": 72.9, "unit": "nM"},
      {"measurement": "Emax", "setting": "[5]; Oryctolagus cuniculus; read-out: Rabbit Saphenous Vein Contraction (% Max. KCl)", "result": 13.7, "unit": "%"},
      {"measurement": "EC50", "setting": "[5]; [13]", "result": 1000, "unit": "nM"}
    ]},
    {"smiles": "CN(C)C1CCc2[nH]c3ccc(O)cc3c2C1", "note": "(centres unmarked) [Compound V, 6-hydroxy-3-dimethylamino-1,2,3,4-tetrahydrocarbazole]", "values": [
      {"measurement": "ED50", "setting": "[3]; [11]", "result": "8.7e-06", "unit": "µmol/kg"},
      {"measurement": "Inhibition of Protein Extravasation i.v. ID50", "setting": "[3]; [14]", "result": "8.7e-09", "unit": "mmol/kg"},
      {"measurement": "EC50", "setting": "[5]; [12]", "result": "> 8030", "unit": "nM"},
      {"measurement": "Emax", "setting": "[5]; [15]", "result": 12.4, "unit": "%"},
      {"measurement": "EC50", "setting": "[5]; Oryctolagus cuniculus, read-out: Rabbit Saphenous Vein Contraction EC50", "result": "> 100000", "unit": "nM"}
    ]}
  ]
}
